Test results reported in US20240246967A1, “AXL COMPOUNDS” (ARCUS BIOSCIENCES, INC., priority 2021, published 2024).

Assays:
Axl [1] = molecular target: T1, Axl (Homo sapiens, UniProt P30530); assay: Axl NanoBRET intracellular kinase assay (intracellular binding, Cell Binding); parameters: host or cells: HEK-293; details: HEK-293 cells transfected with Axl-NanoLuc fusion vector; 0.35 μM K-5 NanoBRET tracer
T1 sequence (P30530 26-894): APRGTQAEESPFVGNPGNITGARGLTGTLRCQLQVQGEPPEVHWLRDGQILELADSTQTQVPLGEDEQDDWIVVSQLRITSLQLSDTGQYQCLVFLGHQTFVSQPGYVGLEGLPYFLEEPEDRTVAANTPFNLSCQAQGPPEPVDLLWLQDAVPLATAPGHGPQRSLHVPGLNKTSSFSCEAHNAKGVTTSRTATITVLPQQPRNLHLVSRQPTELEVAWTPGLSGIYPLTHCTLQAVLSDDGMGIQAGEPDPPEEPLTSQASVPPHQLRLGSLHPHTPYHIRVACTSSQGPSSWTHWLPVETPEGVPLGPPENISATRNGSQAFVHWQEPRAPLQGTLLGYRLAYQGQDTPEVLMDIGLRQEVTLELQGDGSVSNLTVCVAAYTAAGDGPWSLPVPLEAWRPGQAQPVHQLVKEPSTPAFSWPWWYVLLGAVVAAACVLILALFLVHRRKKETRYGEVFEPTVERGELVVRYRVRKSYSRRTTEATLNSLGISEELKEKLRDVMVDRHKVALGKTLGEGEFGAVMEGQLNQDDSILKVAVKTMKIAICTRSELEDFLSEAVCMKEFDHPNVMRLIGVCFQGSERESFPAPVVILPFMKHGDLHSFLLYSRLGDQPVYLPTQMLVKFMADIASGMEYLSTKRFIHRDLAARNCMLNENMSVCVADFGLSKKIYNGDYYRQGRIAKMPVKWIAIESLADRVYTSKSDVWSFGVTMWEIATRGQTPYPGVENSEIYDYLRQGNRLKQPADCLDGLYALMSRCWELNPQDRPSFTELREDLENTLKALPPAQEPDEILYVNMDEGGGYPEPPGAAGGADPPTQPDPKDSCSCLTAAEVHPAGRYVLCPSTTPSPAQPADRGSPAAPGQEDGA
Description: Axl NanoBRET™ intracellular kinase assay (Promega, N2540) was performed according to manufacturer's recommendation. In brief, HEK-293 cells are transiently transfected with Axl-NanoLuc fusion vector (Promega, NV1071), utilizing Fugene HD transfection reagent (Promega, E2311) a day before experiment following manufacturer's recommendation.
The day of the assay, the cells were collected and resuspended in Opti-MEM media (ThermoFisher, 31985070) at 2e5 cells/mL concentration. Testing compounds were serial diluted and dispensed into a white 384 well polystyrene plate at 200 nL in 100% DMSO. 40 μL of resuspended cells is then added per well for a final condition of 8K cells/well with 0.5% DMSO. After one-hour compound pre-incubation at 37° C. and 5% CO2, cells were further incubated with 0.35 μM K-5 NanoBRET tracer for two-hours at 37° C. and 5% CO2. […] of 3× substrate plus Inhibitor solution was prepared according to kits manual and added to the cells followed by a 30 second pulse centrifugation spin. The plate was then immediately read utilizing an Envision (Perkin Elmer) plate reader. The BRET signal is measured by taking the ratio of the emissions reading at 610 nm and 450 nm. Compound binding is based on the decrease BRET signal caused by the displacement of the K-5 tracer. […] IC50 value of compounds was determined by 4-parameter non-linear regression fitting of percent activity in GraphPad Prism software.

Axl [2] = molecular target: T1, Axl; assay: HTRF KinEASE-TK biochemical potency assay, AXL; parameters: purchased Invitrogen; details: 5 nM AXL, 700 μM ATP, 800 nM TK Substrate-biotin
Description: Purified recombinant human AXL, TYRO3 and MER proteins were purchased from Invitrogen™. 10 nM AXL, 2 nM TYRO3 or MER were incubated with varying concentrations of compounds in 50 mM HEPES, pH 7.4, 10 mM MgCl2, 0.01% BSA, 1 mM DTT and 2% DMSO in a total volume of 20 μl in a 384-well microplate (Corning™ #3640) at RT for 1 h. The AXL, TYRO3 and MER enzymatic reaction was initiated by transferring 10 μl of enzyme and compound mixture into 10 μl of 1.6 μM TK Substrate-biotin (HTRF® KinEASE-TK kit, Cisbio) and 1400 μM ATP pre-incubated in 50 mM HEPES, pH 7.4, 10 mM MgCl2, 0.01% BSA, 1 mM DTT in a 384-well microplate (Corning™ #3640) at RT, giving the final reaction conditions: 5 nM AXL, 1 nM TYRO3 or MER, 800 nM TK Substrate-biotin and 700 μM ATP in 50 mM HEPES, pH 7.4, 10 mM MgCl2, 0.01% BSA, 1 mM DTT and 1% DMSO with varying concentrations of compounds. Following 2 h incubation at RT, the AXL, TYRO3 and MER enzymatic reaction was stopped by transfer of 10 μl of reaction into 10 μl of detection mix (400 nM Streptavidin-XL665, 200-fold dilution TK Antibody-Cryptate and detection buffer, HTRF® KinEASE-TK kit, Cisbio) in a white 384-well microplate (Perkin Elmer, OptiPlate 384). After 1 h incubation at RT, the plate was put into a plate reader (Evision) to read at 665/620 nm (acceptor/donor) for HTRF. The value of the DMSO blank (MIN inhibition=100% activity) was used as a negative control. The positive control was established by adding 5 μl of enzyme and DMSO mixture into 10 μl of detection mix followed by addition of 5 μl of TK Substrate-biotin and ATP mixture (MAX inhibition=0% activity). To calculate the percent activity, Equation 1 was used. Ratio 665/620 is the value at a given compound concentration: […]

Compound	IC50 (Axl [1]) [µM]	IC50 (Axl [2]) [µM]
CC(C)(O)c1ccc(-c2n[nH]c3ncc(-c4ccc5c(c4)CCN(C4CCCC4)CC5)c(F)c23)cc1Cl [Example 15, 2-{2-Chloro-4-[5-(3-cyclopentyl-2,3,4,5-tetrahydro-1H-3-benzazepin-7-yl)-4-fluoro-1H-pyrazolo[3,4-b]pyridin-3-yl]phenyl}propan-2-ol]	> 1	–
CC(C)(O)c1ccc(-c2n[nH]c3ncc(-c4ccc5c(c4)CCN(C4CCCC4)CC5)cc23)cc1 [Example 18, 2-{4-[5-(3-Cyclopentyl-2,3,4,5-tetrahydro-1H-3-benzazepin-7-yl)-1H-pyrazolo[3,4-b]pyridin-3-yl]phenyl}propan-2-ol]	0.1 to 1	–
CC(C)(O)c1ccc(-c2n[nH]c3ncc(-c4ccc5c(c4)CCN(C4CCCC4)C5)cc23)cc1Cl [Example 28, 2-(2-Chloro-4-(5-(2-cyclopentyl-1,2,3,4-tetrahydroisoquinolin-6-yl)-1H-pyrazolo[3,4-b]pyridin-3-yl)phenyl)propan-2-ol]	> 1	–
CC(C)(O)c1ccc(-c2n[nH]c3ncc(-c4ccc5c(c4)CN(C4CCCC4)CC5)cc23)cc1Cl [Example 29, 2-(2-Chloro-4-(5-(2-cyclopentyl-1,2,3,4-tetrahydroisoquinolin-7-yl)-1H-pyrazolo[3,4-b]pyridin-3-yl)phenyl)propan-2-ol]	> 1	–
CC(C)(C#N)c1ccc(-c2n[nH]c3ncc(-c4ccc5c(c4)CCN(C4CCCC4)CC5)cc23)cc1 [Example 33, 2-(4-(5-(3-Cyclopentyl-2,3,4,5-tetrahydro-1H-benzo[d]azepin-7-yl)-1H-pyrazolo[3,4-b]pyridin-3-yl)phenyl)-2-methylpropanenitrile]	> 1	0.1 to 1
CNC(=O)c1ccc(-c2n[nH]c3ncc(-c4ccc5c(c4)CCC(C)(N4CCC[C@H]4C)CC5)cc23)cc1 (stereo partly drawn) [Example 71, N-Methyl-4-(5-{7-methyl-7-[(2R)-2-methylpyrrolidin-1-yl]-6,7,8,9-tetrahydro-5H-benzo[7]annulen-2-yl}-1H-pyrazolo[3,4-b]pyridin-3-yl)benzamide]	< 0.1	–
Cc1cc(C(N)=O)ccc1-c1n[nH]c2ncc(-c3ccc4c(c3)CC[C@@H](N3CCCC3)CC4)cc12 [Example 86, (S)-3-Methyl-4-(5-(7-(pyrrolidin-1-yl)-6,7,8,9-tetrahydro-5H-benzo[7]annulen-2-yl)-1H-pyrazolo[3,4-b]pyridin-3-yl)benzamide]	0.1 to 1	< 0.1
CC(C)(O)c1ccc(-c2c[nH]c3ncc(-c4ccc5c(c4)CCC(N4CCCC4)CC5)cc23)cc1Cl (stereo not shown) [Example 106, 2-(2-Chloro-4-{5-[7-(pyrrolidin-1-yl)-6,7,8,9-tetrahydro-5H-benzo[7]annulen-2-yl]-1H-pyrrolo[2,3-b]pyridin-3-yl}phenyl)propan-2-ol]	0.1 to 1	< 0.1

Next, values leading:

IC50 (Axl [1]) [µM]	IC50 (Axl [2]) [µM]	Compound
0.1 to 1	–	CC(O)(c1ccc(-c2n[nH]c3ncc(-c4ccc5c(c4)CCN(C4CCCC4)CC5)cc23)cc1)C(F)(F)F (stereo not shown) [Example 13, 2-{4-[5-(3-Cyclopentyl-2,3,4,5-tetrahydro-1H-3-benzazepin-7-yl)-1H-pyrazolo[3,4-b]pyridin-3-yl]phenyl}-1,1,1-trifluoropropan-2-ol]
> 1	–	CC(C)(O)c1ccc(-c2n[nH]c3ncc(-c4ccc5c(c4)CCN(C4CCCC4)CC5)cc23)cc1OC(F)(F)F [Example 14, 2-{4-[5-(3-Cyclopentyl-2,3,4,5-tetrahydro-1H-3-benzazepin-7-yl)-1H-pyrazolo[3,4-b]pyridin-3-yl]-2-(trifluoromethoxy)phenyl}propan-2-ol]
> 1	0.1 to 1	CS(=O)(=O)c1ccc(-c2n[nH]c3nc(N)c(-c4ccc5c(c4)CCN(C4CCCC4)CC5)cc23)cc1 [Example 19, 5-(3-Cyclopentyl-2,3,4,5-tetrahydro-1H-3-benzazepin-7-yl)-3-(4-methanesulfonylphenyl)-1H-pyrazolo[3,4-b]pyridin-6-amine]
< 0.1	< 0.1	CC(C)S(=O)(=O)c1ccc(-c2n[nH]c3ncc(-c4ccc5c(c4)CCC(C)(N4CCC[C@H]4C)CC5)cc23)cc1 (stereo partly drawn) [Example 43, 3-(4-(Isopropylsulfonyl)phenyl)-5-(7-methyl-7-((R)-2-methylpyrrolidin-1-yl)-6,7,8,9-tetrahydro-5H-benzo[7]annulen-2-yl)-1H-pyrazolo[3,4-b]pyridine]
< 0.1	< 0.1	CCS(=O)(=O)c1ccc(-c2n[nH]c3ncc(-c4ccc5c(c4)CCC(C)(N4CCC[C@H]4C)CC5)cc23)cc1 (stereo partly drawn) [Example 44, 3-(4-(Ethylsulfonyl)phenyl)-5-(7-methyl-7-((R)-2-methylpyrrolidin-1-yl)-6,7,8,9-tetrahydro-5H-benzo[7]annulen-2-yl)-1H-pyrazolo[3,4-b]pyridine]
0.1 to 1	0.1 to 1	CC(C)(O)c1ccc(-c2n[nH]c3ncc(-c4ccc5c(c4)CC[C@@H](N4CCCC4)CC5)cc23)c(Cl)c1 [Example 51, 2-(3-Chloro-4-{5-[(7S)-7-(pyrrolidin-1-yl)-6,7,8,9-tetrahydro-5H-benzo[7]annulen-2-yl]-1H-pyrazolo[3,4-b]pyridin-3-yl}phenyl)propan-2-ol]
< 0.1	–	C[C@@H]1CCCN1C1(C)CCc2ccc(-c3cnc4[nH]cc(C5CCN(S(C)(=O)=O)CC5)c4c3)cc2CC1 (stereo partly drawn) [Example 116, 1-Methanesulfonyl-4-(5-{7-methyl-7-[(2R)-2-methylpyrrolidin-1-yl]-6,7,8,9-tetrahydro-5H-benzo[7]annulen-2-yl}-1H-pyrrolo[2,3-b]pyridin-3-yl)piperidine]
